From US20230295164A1, “COMPOUNDS HAVING ANTIBACTERIAL ACTIVITY” (The Trustees of Princeton University, priority 2020, published 2023)
Converted amounts (≈) assume the structure as drawn.

Columns and labels:
Assay in all cases: MIC testing, broth microdilution in CAMHB
Assay type in all cases: cell-based
[1] = system: Staphylococcus aureus, NRS384; conditions: 18-20 hr, lowest concentration that completely inhibits visible growth; for Compound MICs, Staphylococcus aureus, NRS384: 37° C.; for MIC: Staphylococcus aureus, NRS384, 37° C., read-out: Compound MICs, Staphylococcus aureus, NRS384
Protocol: (§1) Compounds 1-71 were subsequently tested to determine MICs of the compounds relative to the following five species/strains of bacteria: Staphylococcus aureus, NRS384; Enterococcus faecalis, ATCC 51575; Salmonella typhimurium, CMCC 50115; Escherichia coli, ATCC BAA-198; and Acinetobacter baumannii, ATCC 17978. MIC testing of compounds was conducted according to the following protocol.
(§2) For each strain to be tested, made fresh streaks onto CAMHA from −80° C. glycerol stocks.
(§3) • CAMHB: Dissolved 22 g of the powder per 1 L of purified water. Mixed well. Autoclaved at 121° C. for 10 minutes. Stored at room temperature (RT) for no more than 1 week. • Saline: Dissolved 9 g of the powder per 1 L of purified water. Mixed well. Autoclaved at 121° C. for 30 minutes. Stored at room temperature (RT) for no more than 1 week.
(§4) Prepared the stock solutions of the tested compounds.
(§5) For compounds: • a) Dispensed 20 ul compound to the wells in column 1, and 20 ul DMSO to the wells in column 2 to 12; • b) Diluted the compounds by transferring 10 ul compounds from column 1 to 20 ul DMSO in column 2; mix with pipette. • c) Repeated until column 11 to get 3×serial dilutions. Column 12 was the DMSO control.
(§6) A multichannel pipette was used to deliver 1 μl of the diluted compound into each well of the corresponding daughter plate.
(§7) Scraped 4-8 single colonies from an agar plate into 5 ml saline in a 14 ml Falcon conical tube. Vortexed the tube to suspend the bacteria. Adjusted the turbidity to ˜0.2 (corresponding to 0.5 McFarland) with an Ultrospec 10 Cell density meter.
(§8) The strain suspension was diluted 200-fold in CAMHB medium and dispense into a sterile reservoir. A multichannel pipette was then used to deliver 99 μl of the diluted inocula into each well of the corresponding daughter plate.
(§9) Incubate the daughter plates at 37° C., 85% humidity for 18-20 hr.
(§10) A magnifying mirror device was used for ease of scoring the presence or absence of growth in the wells. 96-well micro-plates were photographed.

[2] = system: Salmonella typhimurium, CMCC 50115; conditions: 37° C., 18-20 hr, lowest concentration that completely inhibits visible growth; for MIC: Salmonella enterica, read-out: Compound MICs, Salmonella typhimurium, CMCC 50115
Protocol: as §1, §2, §3, §4, §5, §6, §7, §8, §9, §10

[3] = system: Enterococcus faecalis, ATCC 51575; conditions: 18-20 hr, lowest concentration that completely inhibits visible growth; for Compound MICs, Enterococcus faecalis, ATCC 51575: 37° C.; for MIC: Enterococcus faecalis, ATCC51575, 37° C., read-out: Compound MICs, Enterococcus faecalis, ATCC 51575
Protocol: as §1, §2, §3, §4, §5, §6, §7, §8, §9, §10

[4] = system: Acinetobacter baumannii, ATCC 17978; conditions: 18-20 hr, lowest concentration that completely inhibits visible growth; for Compound MICs, Acinetobacter baumannii, ATCC 17978: 37° C.; for MIC: Acinetobacter baumannii, ATCC17978, 37° C., read-out: Compound MICs, Acinetobacter baumannii, ATCC 17978
Protocol: as §1, §2, §3, §4, §5, §6, §7, §8, §9, §10

[5] = system: Escherichia coli, ATCC BAA-198; conditions: 18-20 hr, lowest concentration that completely inhibits visible growth; for Compound MICs, Escherichia coli, ATCC BAA-198: 37° C.; for MIC: Escherichia coli, ATCCBAA198, 37° C., read-out: Compound MICs, Escherichia coli, ATCC BAA-198
Protocol: as §1, §2, §3, §4, §5, §6, §7, §8, §9, §10

| SMILES | Compound MICs, Staphylococcus aureus, NRS384 [1] | Compound MICs, Salmonella typhimurium, CMCC 50115 [2] | Compound MICs, Enterococcus faecalis, ATCC 51575 [3] | Compound MICs, Acinetobacter baumannii, ATCC 17978 [4] | Compound MICs, Escherichia coli, ATCC BAA-198 [5] | MIC [1] | MIC [2] | MIC [3] | MIC [4] | MIC [5] |
| --- | --- | --- | --- | --- | --- | --- | --- | --- | --- | --- |
| NCC#Cc1ccc(Cn2ccc3c4c(N)nc(N)nc4ccc32)cc1 [Compound 24] | 0.79 µg/mL | 0.26 µg/mL | 0.26 µg/mL | 64 µg/mL | 7.11 µg/mL | – | – | – | – | – |
| Nc1nc(N)c2c(ccc3c2ccn3Cc2ccc3c(c2)OCO3)n1 [Compound 69] | 0.09 µg/mL | 0.26 µg/mL | 0.03 µg/mL | 7.11 µg/mL | 2.37 µg/mL | – | – | – | – | – |
| Nc1nc(N)c2c(n1)c(-c1ccc(F)cc1)cc1c2ccn1Cc1ccc(F)cc1 [Compound 52] | 7.11 µg/mL | 21.3 µg/mL | 2.37 µg/mL | >64 µg/mL | >64 µg/mL | – | – | – | – | – |
| Nc1nc(N)c2c(ccc3c2ccn3Cc2ccc3ccccc3c2)n1 [Compound 26] | 0.09 µg/mL | 0.26 µg/mL | 0.09 µg/mL | 2.37 µg/mL | 2.37 µg/mL | – | – | – | – | – |
| COc1ccc(Cn2ccc3c4c(N)nc(N)nc4ccc32)c(Cl)c1 [Compound 65] | 0.09 µg/mL | 0.26 µg/mL | 0.01 µg/mL | 7.11 µg/mL | 7.11 µg/mL | – | – | – | – | – |
| C#Cc1ccc(Cn2ccc3c4c(N)nc(N)nc4ccc32)cc1 [Compound 1] | – | – | – | – | – | 0.088 µg/mL (≈ 0.281 µM) | 0.088 µg/mL (≈ 0.281 µM) | 0.01 µg/mL (≈ 0.0319 µM) | 2.37 µg/mL (≈ 7.56 µM) | 2.37 µg/mL (≈ 7.56 µM) |
| Nc1nc(N)c2c(ccc3c2ccn3Cc2ccc(B(O)O)cc2)n1 [Compound 51] | 0.26 µg/mL | 0.26 µg/mL | 0.003 µg/mL | >64 µg/mL | 21.3 µg/mL | – | – | – | – | – |
| Nc1nc(N)c2c(ccc3c2ccn3Cc2ccc(-c3ccccn3)cc2)n1 [Compound 61] | 0.09 µg/mL | 0.26 µg/mL | 0.03 µg/mL | 7.11 µg/mL | 7.11 µg/mL | – | – | – | – | – |
| CC(C)C#Cc1ccc(Cn2ccc3c4c(N)nc(N)nc4ccc32)cc1 [Compound 15] | 0.26 µg/mL | 2.37 µg/mL | 0.09 µg/mL | 21.3 µg/mL | 7.11 µg/mL | – | – | – | – | – |
| C#Cc1ccc(Cn2ccc3c4c(N)nc(NC5CC5)nc4ccc32)cc1 [Compound 9] | – | – | – | – | – | 0.79 µg/mL (≈ 2.24 µM) | 2.37 µg/mL (≈ 6.71 µM) | 0.26 µg/mL (≈ 0.736 µM) | 21.3 µg/mL (≈ 60.3 µM) | 21.3 µg/mL (≈ 60.3 µM) |
